Measurements from patent publication US9796711B2, “Substituted pyrazolo[3,4-b]pyridin-6-carboxylic acids and method of use” (AbbVie S.àr.l., priority 2015, dated 2017).

Legend:
ΔF508-CFTR [1] = biological target: T1, ΔF508-CFTR (Homo sapiens, UniProt P13569, DEL508-508); test: CFTR cell surface levels using HRP-tagged ΔF508-CFTR expressing CFBE cells, intrinsic corrector capacity; type: cell-based; settings: HRP-tagged ΔF508-CFTR expressing CFBE cells, intrinsic corrector capacity (no co-corrector), 33° C., 20 hours; for EC50: read-out: EC50
T1 construct: host or cells: CFBE41o-, doxycycline-inducible
T1 sequence (P13569 with tags, fused parts or gaps DEL508-508): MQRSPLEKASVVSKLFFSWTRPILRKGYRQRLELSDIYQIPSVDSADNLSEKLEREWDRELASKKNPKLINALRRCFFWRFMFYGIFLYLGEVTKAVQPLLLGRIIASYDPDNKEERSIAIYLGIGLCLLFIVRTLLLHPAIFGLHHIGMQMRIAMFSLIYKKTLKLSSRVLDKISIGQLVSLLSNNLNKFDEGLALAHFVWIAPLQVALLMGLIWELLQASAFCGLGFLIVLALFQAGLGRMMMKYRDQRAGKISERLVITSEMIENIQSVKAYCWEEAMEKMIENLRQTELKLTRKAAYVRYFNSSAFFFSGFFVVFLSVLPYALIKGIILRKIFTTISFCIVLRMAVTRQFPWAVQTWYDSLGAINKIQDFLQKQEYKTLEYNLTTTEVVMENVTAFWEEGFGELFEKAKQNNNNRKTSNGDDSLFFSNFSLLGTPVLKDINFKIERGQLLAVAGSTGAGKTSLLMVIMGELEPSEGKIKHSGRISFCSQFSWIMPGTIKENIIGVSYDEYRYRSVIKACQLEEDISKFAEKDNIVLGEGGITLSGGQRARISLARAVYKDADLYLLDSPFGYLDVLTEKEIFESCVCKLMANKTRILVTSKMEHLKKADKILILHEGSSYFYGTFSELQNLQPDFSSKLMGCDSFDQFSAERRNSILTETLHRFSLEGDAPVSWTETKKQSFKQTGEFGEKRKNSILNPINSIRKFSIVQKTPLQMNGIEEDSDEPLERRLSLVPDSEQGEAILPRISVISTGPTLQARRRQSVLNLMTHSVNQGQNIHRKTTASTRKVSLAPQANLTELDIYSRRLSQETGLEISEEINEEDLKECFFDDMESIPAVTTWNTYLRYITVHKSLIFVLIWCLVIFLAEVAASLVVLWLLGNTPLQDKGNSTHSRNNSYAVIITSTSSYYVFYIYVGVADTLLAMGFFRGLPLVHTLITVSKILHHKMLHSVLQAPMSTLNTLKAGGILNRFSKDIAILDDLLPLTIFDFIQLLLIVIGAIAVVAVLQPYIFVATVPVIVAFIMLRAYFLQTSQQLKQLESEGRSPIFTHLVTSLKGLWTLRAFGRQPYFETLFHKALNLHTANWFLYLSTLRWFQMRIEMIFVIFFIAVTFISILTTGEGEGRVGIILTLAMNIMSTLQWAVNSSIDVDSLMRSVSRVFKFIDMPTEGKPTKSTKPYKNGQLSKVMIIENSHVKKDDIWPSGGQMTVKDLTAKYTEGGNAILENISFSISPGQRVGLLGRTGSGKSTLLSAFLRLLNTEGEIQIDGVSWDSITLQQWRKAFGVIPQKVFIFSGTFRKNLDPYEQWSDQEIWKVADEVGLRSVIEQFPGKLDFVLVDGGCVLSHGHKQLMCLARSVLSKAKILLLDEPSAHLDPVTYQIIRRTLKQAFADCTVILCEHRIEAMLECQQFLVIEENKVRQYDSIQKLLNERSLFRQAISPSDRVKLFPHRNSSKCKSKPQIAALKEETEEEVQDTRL
Summary of the method: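 Here the cells express ΔF508-CFTR with horseradish peroxidase inserted in extracellular loop 4, so only rescued channel at the surface gives luminescent signal. Compounds act on their own, 20 h at the reduced temperature of 33 °C; values are percent activity relative to DMSO and a 3 μM corrector.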

ΔF508-CFTR [2] = biological target: T1, ΔF508-CFTR; test: CFTR cell surface levels using HRP-tagged ΔF508-CFTR expressing CFBE cells, in the presence of a co-corrector; type: cell-based; settings: HRP-tagged ΔF508-CFTR expressing CFBE cells, in the presence of 3 μM co-corrector; for EC50: read-out: EC50
Summary of the method: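 Cells were seeded with 0.5 μg/mL doxycycline and held 68 h at 37 °C. Test compounds plus 3 μM co-corrector (final 0.1% DMSO) were then added for 20 h at 33 °C. Washed cells received HRP substrate, and luminescence was normalized between DMSO and 3 μM co-corrector controls.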

Row | SMILES | % Activation (ΔF508-CFTR [1]) [%] | EC50 (ΔF508-CFTR [1]) [nM] | % Activation (ΔF508-CFTR [2]) [%] | EC50 (ΔF508-CFTR [2]) [nM]
1 | COC1CCCN(C2CCN(c3cc(C(=O)O)nc4c3c(C3CCC3)nn4-c3ccc(F)cc3)CC2)C1 (centres unmarked) [compound 875, 3-cyclobutyl-1-(4-fluorophenyl)-4-(3-methoxy[1,4′-bipiperidin]-1′-yl)-1H-pyrazolo[3,4-b]pyridine-6-carboxylic acid] | 270.7 | 1600 | 450.3 | 819
2 | CC1(C)CN(C2CCN(c3cc(C(=O)O)nc4c3c(C3CCC3)nn4-c3ccc(F)cc3)CC2)CCO1 [compound 876, 3-cyclobutyl-4-[4-(2,2-dimethylmorpholin-4-yl)piperidin-1-yl]-1-(4-fluorophenyl)-1H-pyrazolo[3,4-b]pyridine-6-carboxylic acid] | 324.4 | 301 | 562.35 | 267
3 | CN1CCN(c2ccc(-c3cc(C(=O)O)nc4c3c(C3CCC3)nn4C3CCCCC3)cn2)CC1 [compound 877, 3-cyclobutyl-1-cyclohexyl-4-[6-(4-methylpiperazin-1-yl)pyridin-3-yl]-1H-pyrazolo[3,4-b]pyridine-6-carboxylic acid] | 162.65 | 348 | 374.57 | 605
4 | CC(C)N1CCN(C2CCN(c3cc(C(=O)O)nc4c3c(C3CCC3)nn4-c3ccc(F)cc3)CC2)CC1 [compound 879, 3-cyclobutyl-1-(4-fluorophenyl)-4-{4-[4-(propan-2-yl)piperazin-1-yl]piperidin-1-yl}-1H-pyrazolo[3,4-b]pyridine-6-carboxylic acid] | 279.6 | 355 | 446.25 | 196
5 | CC(C)N1CCN(C2CCN(c3cc(C(=O)O)nc4c3c(C3CCC3)nn4C3CCCCC3)CC2)CC1 [compound 880, 3-cyclobutyl-1-cyclohexyl-4-{4-[4-(propan-2-yl)piperazin-1-yl]piperidin-1-yl}-1H-pyrazolo[3,4-b]pyridine-6-carboxylic acid] | 259.5 | 169 | 446.95 | 693
6 | CC(C)Oc1nn(C2CCCCC2)c2nc(C(=O)O)cc(-c3ccc(N4CCN(C)CC4)cc3)c12 [compound 883, 1-cyclohexyl-4-[4-(4-methylpiperazin-1-yl)phenyl]-3-[(propan-2-yl)oxy]-1H-pyrazolo[3,4-b]pyridine-6-carboxylic acid] | 160.6 | 330 | 380.9 | 238
7 | CC(C)Oc1nn(C2CCCCC2)c2nc(C(=O)O)cc(-c3ccc(CN4CCN(C5CC5)CC4)cc3)c12 [compound 884, 1-cyclohexyl-4-{4-[(4-cyclopropylpiperazin-1-yl)methyl]phenyl}-3-[(propan-2-yl)oxy]-1H-pyrazolo[3,4-b]pyridine-6-carboxylic acid] | 140.6 | 298 | 377.6 | 214
8 | O=C(O)c1cc(N2CCC(N3CCOCC3)CC2)c2c(C3CCC3)nn(-c3ccnc(O)c3)c2n1 [compound 885, 3-cyclobutyl-1-(2-hydroxypyridin-4-yl)-4-[4-(morpholin-4-yl)piperidin-1-yl]-1H-pyrazolo[3,4-b]pyridine-6-carboxylic acid] | 66.2 | 3340 | 255.5 | 2450
9 | O=C(O)c1cc(N2CCC(N3CCOCC3)CC2)c2c(C3CCC3)nn(-c3ccnc(OC(F)F)c3)c2n1 [compound 889, 3-cyclobutyl-1-[2-(difluoromethoxy)pyridin-4-yl]-4-[4-(morpholin-4-yl)piperidin-1-yl]-1H-pyrazolo[3,4-b]pyridine-6-carboxylic acid] | 229.2 | 404 | 449.8 | 241
10 | CCOC(=O)N1CCN(C2CCN(c3cc(C(=O)O)nc4c3c(C3CCC3)nn4-c3ccc(F)cc3)CC2)CC1 [compound 891, 3-cyclobutyl-4-{4-[4-(ethoxycarbonyl)piperazin-1-yl]piperidin-1-yl}-1-(4-fluorophenyl)-1H-pyrazolo[3,4-b]pyridine-6-carboxylic acid] | 367.25 | 93.1 | 564.5 | 51
11 | O=C(O)c1cc(CN2CCC(N3CCOCC3)CC2)c2c(C3CCC3)nn(-c3ccc(F)cc3)c2n1 [compound 893, 3-Cyclobutyl-1-(4-fluoro-phenyl)-4-(4-morpholin-4-yl-piperidin-1-ylmethyl)-1H-pyrazolo[3,4-b]pyridine-6-carboxylic acid] | 55.75 | 3140 | 236.6 | 3330
12 | COCCN(C)C1CCN(c2cc(C(=O)O)nc3c2c(C2CCC2)nn3-c2ccc(F)cc2)CC1 [compound 895, 3-cyclobutyl-1-(4-fluorophenyl)-4-{4-[(2-methoxyethyl)(methyl)amino]piperidin-1-yl}-1H-pyrazolo[3,4-b]pyridine-6-carboxylic acid] | 178.2 | 1280 | 429.4 | 3330
13 | COCCN1CCN(C2CCN(c3cc(C(=O)O)nc4c3c(C3CCC3)nn4-c3ccc(F)cc3)CC2)CC1 [compound 896, 3-cyclobutyl-1-(4-fluorophenyl)-4-{4-[4-(2-methoxyethyl)piperazin-1-yl]piperidin-1-yl}-1H-pyrazolo[3,4-b]pyridine-6-carboxylic acid] | 358.8 | 1630 | 513.5 | 700
14 | O=C(O)c1cc(N2CCC(N3CCN(C4COC4)CC3)CC2)c2c(C3CCC3)nn(-c3ccc(F)cc3)c2n1 [compound 899, 3-cyclobutyl-1-(4-fluorophenyl)-4-{4-[4-(oxetan-3-yl)piperazin-1-yl]piperidin-1-yl}-1H-pyrazolo[3,4-b]pyridine-6-carboxylic acid] | 210.9 | 3100 | 351.9 | 309
15 | CC(C)N1CCC2CN(c3cc(C(=O)O)nc4c3c(C3CCC3)nn4-c3ccc(F)cc3)CCC21 (centres unmarked) [compound 900, 3-cyclobutyl-1-(4-fluorophenyl)-4-[1-(propan-2-yl)octahydro-5H-pyrrolo[3,2-c]pyridin-5-yl]-1H-pyrazolo[3,4-b]pyridine-6-carboxylic acid] | 183.97 | 433 | 389.73 | 216
16 | O=C(O)c1cc(N2CCC3C(CCN3C3CCC3)C2)c2c(C3CCC3)nn(-c3ccc(F)cc3)c2n1 (centres unmarked) [compound 901, 3-cyclobutyl-4-(1-cyclobutyloctahydro-5H-pyrrolo[3,2-c]pyridin-5-yl)-1-(4-fluorophenyl)-1H-pyrazolo[3,4-b]pyridine-6-carboxylic acid] | 199.2 | 87.6 | 432.3 | 151
17 | O=C(O)c1cc(N2CCC3C(CCN3C3COC3)C2)c2c(C3CCC3)nn(-c3ccc(F)cc3)c2n1 (centres unmarked) [compound 902, 3-cyclobutyl-1-(4-fluorophenyl)-4-[1-(oxetan-3-yl)octahydro-5H-pyrrolo[3,2-c]pyridin-5-yl]-1H-pyrazolo[3,4-b]pyridine-6-carboxylic acid] | 193.9 | 230 | 411.75 | 114
